Source: patent publication US9993515B2 (DSM IP ASSETS B.V., priority 2006, dated 2018)
Read-outs that look alike come from different tables or passages of the source. Residues, ends and D or L forms follow the SMILES beside them.

How the values were obtained:
[1] = tested on: healthy volunteers; experiment: Profile of Mood States (POMS) after consumption of tryptophan sources (Example 6); assay type: in vivo, human; details: for mood changes after the intake (POMS total mood scores): over time after intake
[2] = both, human, in vivo
Method: The amino acid profiles in plasma were analyzed as described in Example 6 by HPLC according to van Eijk et al (J. Chromatogr. 1993: 620: 143-148).
The aim of the present study was to investigate in healthy volunteers plasma Trp/LNAA profiles and mood after the consumption of different tryptophan containing preparations.
Eighteen healthy students (9 males and 9 females: age between 18-30 years) participated in the study. Exclusion criteria for participation were chronic and current illness, history of psychiatric or medical illness, use of medication or drugs, alcohol consumption (>2 units/day), metabolic-, hormonal- or intestinal diseases and irregular diets or deviant eating habits (assessed by health and life-style questionnaires). Subjects participating in the experiment were in the normal range for the Body-Mass Index (BMI in kg/m^2 between 20-25) and female subjects are matched for contraception. Women participated during their mid-late follicular phase (day 4-10), while women using contraception participated when they actually used the contraception pill. […] All subjects participating in the experiment signed an Informed Consent Form. This study was conducted according to the EC principles of Good Clinical Practice (GCP) adopted by the 52nd WMA General Assembly, Edinburgh, Scotland, October 2000.
Subjects were instructed to fast overnight; only water or tea without sugar was permitted. During five experimental morning sessions, subjects visited the laboratory to monitor plasma Trp/LNAA concentrations and mood following the intake of a drink containing different Trp or LNAA concentrations. The order of presentation of the various drinks was counterbalanced and the four experimental days were separated by a one-week period. On each experimental morning, a 312 ml drink was provided containing different tryptophan (Trp) or LNAA concentrations (Table 1). All drinks contained 0.10 g sweetener (acesulfame) and were filled up with plain water in order to reach 312 mL. A research assistant blind to the dietary conditions conducted the administration of the different drinks.
Blood samples were collected in duplicate before and 15, 30, 60, 90, 120, 180 and 210 minutes after ingestion in 5 ml vacutainer tubes containing sodium heparine and were then centrifuged at 5000 rpm for 5 min at 4° C. The resulting supernatants were mixed with sulfasalicyl acid (4 mg/100 microliter) and directly stored at −80° C. until analysis. Plasma amino acid analysis was conducted with HPLC, making use of a 2-3 μm Bischof Spherisorb ODS II column as described by van Eijk et al (J. Chromatogr. 1993: 620: 143-148). The plasma Trp/LNAA ratios were calculated by dividing the plasma molar tryptophan concentration by the sum of the plasma molar concentrations of the large neutral amino acids valine, isoleucine, leucine, tyrosine and phenylalanine. Statistical analysis took place by means of repeated measures multivariate and univariate analyses of variance (MANOVA and ANOVA) using the General Linear Model (GLM: SPSS 12.0 for Windows). All statistics were evaluated at a significance level of P=0.05.

Compound | mood changes after the intake (POMS total mood scores) [1] | mood (POMS total mood scores) ([1]; 60 min after the intake) | plasma Trp/LNAA ratio ([2]; 0 min) | plasma Trp/LNAA ratio ([2]; 30 min) | plasma Trp/LNAA ratio ([2]; 60 min) | plasma Trp/LNAA ratio ([2]; 90 min) | plasma Trp/LNAA ratio ([2]; 120 min) | plasma Trp/LNAA ratio ([2]; 180 min) | plasma Trp/LNAA ratio ([2]; 210 min)
N[C@@H](CO)C(=O)N[C@@H](Cc1c[nH]c2ccccc12)C(=O)O [SYN, Ser-Trp] (H-Ser-Trp-OH) | not significant | – | – | – | – | – | – | – | –
N[C@@H](Cc1c[nH]c2ccccc12)C(=O)O [TRP, L-tryptophan] | – | improvements of mood | 0.11 | 0.12 | 0.29 | 0.31 | 0.32 | 0.24 | 0.20
ALAC: intact alpha-lactalbumin obtained as Biopure (>90% alpha-lactalbumin) from Davisco Foods International | no mood changes | – | – | – | – | – | – | – | –
